Data reported in publication PMC9705869, “Chromophorylation of a Novel Cyanobacteriochrome GAF Domain from Spirulina and Its Response to Copper Ions” (Journal of Microbiology and Biotechnology, 2020).

Molecular target: T1, SPI1085g2 (Spirulina subsalsa, UniProt A0ABT3L563)
T1 construct: gene K4A83_08105; second GAF domain (GAF2) only, residues 216-369 of SPI1085; N-terminal polyhistidine tag kept (pETDuet); expressed in E. coli BL21(DE3) with ho1::pcyA or ho1::pebS
T1 sequence (A0ABT3L563 216-369): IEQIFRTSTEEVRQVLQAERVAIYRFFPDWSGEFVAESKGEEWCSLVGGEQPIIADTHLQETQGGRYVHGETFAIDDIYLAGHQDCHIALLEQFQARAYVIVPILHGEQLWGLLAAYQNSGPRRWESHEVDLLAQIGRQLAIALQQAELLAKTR
Test: zinc-induced fluorescence on SDS-PAGE; absorbance and acid-urea denaturation
Type: binding
Details: covalent, KPB pH […]

SMILES | zinc-induced fluorescence on SDS-PAGE; absorbance and acid-urea denaturation (chromophore assembled in E. coli co-expressing ho1 and pcyA) | zinc-induced fluorescence on SDS-PAGE; absorbance and acid-urea denaturation (chromophore assembled in E. coli co-expressing ho1 and pebS)
C/C=C1/C(=C/c2[nH]c(/C=C3N=C(/C=C4\NC(=O)C(CC)=C4C)C(C)=C\3CCC(=O)O)c(CCC(=O)O)c2C)NC(=O)[C@@H]1C [PCB, phycocyanobilin] | SPI1085g2 can covalently bind PCB, as demonstrated by the zinc-dependent fluorescence observed by SDS-PAGE | 
C=CC1=C(C)[C@@H](Cc2[nH]c(/C=C3N=C(/C=C4\NC(=O)[C@H](C)\C4=C/C)C(C)=C\3CCC(=O)O)c(CCC(=O)O)c2C)NC1=O [PEB, phycoerythrobilin] |  | resulted in highly efficient binding of PEB to SPI1085g2
